Results: article PMC10281575, “PfCRT mutations conferring piperaquine resistance in falciparum malaria shape the kinetics of quinoline drug binding and transport” (PLOS Pathogens, 2023)
Values joined by “and” are separate entries in the source; they are usually repeats but may differ in a detail not shown here. Equal values may be shown once. Read-outs that look alike come from different tables or passages of the source.

Molecular target: T1, PfCRT^Dd2_F145I (Plasmodium falciparum, UniProt Q8IBZ9, A220S/F145I/I356T/K76T/M74I/N326S/N75E/Q271E/R371I)
T1 construct: expressed in transfected cells; host or cells: Xenopus laevis oocytes injected with in vitro transcribed RNA (pSP64T)
T1 sequence (Q8IBZ9 1-424 M74I/N75E/K76T/F145I/A220S/Q271E/N326S/I356T/R371I): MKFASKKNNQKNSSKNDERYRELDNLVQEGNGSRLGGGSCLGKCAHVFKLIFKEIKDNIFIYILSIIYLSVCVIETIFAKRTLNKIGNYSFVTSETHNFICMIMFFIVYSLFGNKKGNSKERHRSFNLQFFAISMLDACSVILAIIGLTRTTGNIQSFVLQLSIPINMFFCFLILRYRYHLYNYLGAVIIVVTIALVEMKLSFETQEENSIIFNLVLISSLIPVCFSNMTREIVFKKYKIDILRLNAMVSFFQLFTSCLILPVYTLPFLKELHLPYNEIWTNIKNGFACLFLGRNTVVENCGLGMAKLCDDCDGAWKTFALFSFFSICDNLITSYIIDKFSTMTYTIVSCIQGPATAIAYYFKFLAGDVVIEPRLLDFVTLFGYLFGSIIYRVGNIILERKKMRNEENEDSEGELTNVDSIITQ
Test: Competition kinetics of drug transport (radiolabeled substrate plus cold inhibitor), PfCRT^Dd2_F145I-expressing oocytes
Format: cell-based
Conditions: for Vmax, maximal velocity of drug transport: global fit; for β, partiality factor: factor on transport of the labeled drug by the other drug
Method: To further characterize the kinetic relationship between CQ and PPQ, we performed a series of competition reactions. To this end, water-injected oocytes and PfCRT-expressing oocytes were incubated in medium containing one of seven concentrations of radio-labeled CQ and one of six concentrations of cold PPQ for 60 min before the amount of radio-labeled CQ uptake was determined. The rate of PfCRT-mediated CQ uptake was calculated for each condition by subtracting the corresponding value obtained for water-injected oocytes from those of PfCRT-expressing oocytes. The results were analyzed as a function of the CQ concentration (Fig 4A) and 16 different models of substrate competition were globally fit to the data by the least-squares method, using Python. The models were ranked, according to their Akaike information criterion difference (ΔAICC) and their Akaike weight (Fig 4B), with the most plausible model being the one with the lowest AICC (ΔAICC = 0) and the highest Akaike weight.
A complementary set of experiments was undertaken to investigate the kinetic mechanism by which PfCRT^Dd2_F145I accepts CQ and PPQ (Fig 6). […] These included a global fit of the substrate competition data to the 16 kinetic models (Fig 6), analysis of the secondary plots (Vmax,app and Vmax,app/KM,app as a function of the inhibitor concentration) (Fig 7A), a fractional velocity plot analysis (Fig 7B) and a comparison of the experimental data with the modelled data using the noncompetitive inhibition equation (Fig 7C to 7F). […] The fractional velocity plot illustrated the partial character of the noncompetitive inhibition mechanism by yielding a partiality factor β^CQ = 0.31 ± 0.04, by which PPQ reduces the transport velocity of CQ (Fig 7B). […] A 3D model of the kinetics between PfCRT^Dd2_F145I, CQ and PPQ, and analyses of the residuals as a function of substrate and inhibitor concentrations confirmed that the model was also an appropriate explanation for the mutant transporter (Fig 7C to 7F).
Drug transport assays were performed as previously described. Briefly, measurements of radiolabeled drug uptake were made over 1 h, unless otherwise specified. […] Where specified, one or more unlabeled drugs were also present at the indicated concentrations. The direction of drug transport in the assays is from the extracellular medium (pH 6) into the oocyte cytosol (pH 7.2), which corresponds to the efflux of CQ or PPQ from the acidic digestive vacuole (pH 5.2) into the parasite cytosol (pH 7.2). The uptake assays were terminated by removing the oocytes from the reaction medium and washing them three times with 2 mL of ice-cold ND96 buffer. Each oocyte was transferred to a separate scintillation vial and lysed by the addition of 200 μL of a 5% SDS solution. The radioactivity in the sample was measured using a liquid scintillation analyser Tri-Carb 4910 TR (PerkinElmer). Water-injected oocytes were analyzed in parallel as a negative control. The buffer from each condition was measured in duplicate in parallel to each experiment to transform counts per minute into pmol of drug. Drug uptake attributable to PfCRT was determined by subtracting the background uptake from water-injected oocytes from that of PfCRT-expressing oocytes. In all cases, at least three independent experiments were performed on oocytes from different frogs, and for each condition in an experiment, measurements were made from 10 oocytes per treatment.
The following equations were adopted from Segel (1993), and the reader is referred to that text for the assumptions made in the author’s approach in the derivation of each equation [31]. The concentration of substrate is denoted as [S1] and the concentration of the inhibiting substrate is denoted as [S2]. KS1 and KS2 are the dissociation constants for the respective substrate-protein complexes.
Analyses of the kinetic data were performed using SigmaPlot version 13.0 and Python. […]

Clc1ccc2c(N3CCN(CCCN4CCN(c5ccnc6cc(Cl)ccc56)CC4)CC3)ccnc2c1 [PPQ, piperaquine]
PfCRTDd2_F145I-mediated PPQ transport (500 µM PPQ, 400 µM CQ): 83.51 pmol oocyte-1 h-1 and 92.59 pmol oocyte-1 h-1
v / (Vmax - v) (1/[PPQ] 0.002000 µM-1): 0.4488
v / (Vmax - v) (1/[PPQ] 0.002857 µM-1): 0.4948
v / (Vmax - v) (1/[PPQ] 0.005000 µM-1): 0.5591
v / (Vmax - v) (1/[PPQ] 0.008000 µM-1): 0.7269
v / (Vmax - v) (1/[PPQ] 0.020000 µM-1): 0.8760
most plausible inhibition model (16 models, ΔAICC, Akaike weight, secondary plots): partial noncompetitive inhibition
Vmax, maximal velocity of drug transport (Mixed (Partial) model, drug as radiolabeled substrate): 150 ± 5 pmol oocyte^-1 h^-1
Kd (Mixed (Partial) model, drug as cold inhibitor, read-out: KS, dissociation constant for the PfCRT-substrate complex): 160 ± 40 µM
Kd (Mixed (Partial) model, drug as radiolabeled substrate, read-out: KS, dissociation constant for the PfCRT-substrate complex): 128 ± 11 µM
β, partiality factor (Mixed (Partial) model): 0.64 ± 0.09
α, KS interaction factor (Mixed (Partial) model, label = radiolabeled substrate, other drug cold inhibitor): 1.2 ± 0.3
Vmax, maximal velocity of drug transport (Noncompetitive (Partial) model, drug as radiolabeled substrate, other drug as cold inhibitor): 152 pmol oocyte^-1 h^-1 and 152 ± 4 pmol oocyte^-1 h^-1
Kd (Noncompetitive (Partial) model, drug as cold inhibitor, read-out: KS, dissociation constant for the PfCRT-substrate complex): 167 µM and 170 µM
Kd (Noncompetitive (Partial) model, drug as radiolabeled substrate, read-out: KS, dissociation constant for the PfCRT-substrate complex): 134 ± 8 µM
β, partiality factor (Noncompetitive (Partial) model): 0.61 and 0.61 ± 0.07
KMapp ([3H]PPQ + CQ) ([CQ] 0 µM): 124.39 µM
Vmaxapp ([3H]PPQ + CQ) ([CQ] 0 µM): 148.37 pmol oocyte-1 h-1
Vmaxapp/KMapp ([3H]PPQ + CQ) ([CQ] 0 µM): 1.1929 h⁻¹
KMapp ([3H]PPQ + CQ) ([CQ] 25 µM): 139.84 µM
Vmaxapp ([3H]PPQ + CQ) ([CQ] 25 µM): 149.64 pmol oocyte-1 h-1
Vmaxapp/KMapp ([3H]PPQ + CQ) ([CQ] 25 µM): 1.0701 h⁻¹
KMapp ([3H]PPQ + CQ) ([CQ] 50 µM): 130.94 µM
Vmaxapp ([3H]PPQ + CQ) ([CQ] 50 µM): 139.65 pmol oocyte-1 h-1
Vmaxapp/KMapp ([3H]PPQ + CQ) ([CQ] 50 µM): 1.0665 h⁻¹
KMapp ([3H]PPQ + CQ) ([CQ] 125 µM): 131.31 µM
Vmaxapp ([3H]PPQ + CQ) ([CQ] 125 µM): 130.07 pmol oocyte-1 h-1
Vmaxapp/KMapp ([3H]PPQ + CQ) ([CQ] 125 µM): 0.9905 h⁻¹
KMapp ([3H]PPQ + CQ) ([CQ] 200 µM): 138.10 µM
Vmaxapp ([3H]PPQ + CQ) ([CQ] 200 µM): 125.38 pmol oocyte-1 h-1
Vmaxapp/KMapp ([3H]PPQ + CQ) ([CQ] 200 µM): 0.9079 h⁻¹
KMapp ([3H]PPQ + CQ) ([CQ] 400 µM): 147.48 µM
Vmaxapp ([3H]PPQ + CQ) ([CQ] 400 µM): 117.65 pmol oocyte-1 h-1
Vmaxapp/KMapp ([3H]PPQ + CQ) ([CQ] 400 µM): 0.7978 h⁻¹
Kd (secondary plot, half-maximal inhibitory concentration of Vmax,app versus inhibitor concentration, read-out: αKS, dissociation constant between the drug and the PfCRT complex with the other drug): 170 ± 30 µM
Kd (secondary plot, half-maximal inhibitory concentration of Vmax,app/KM,app versus inhibitor concentration, read-out: KS, dissociation constant between the drug and PfCRT): 170 ± 50 µM
α (αKS divided by KS) (secondary plots, label = prebound drug): 0.8 ± 0.7
